Measurements reported in ChEMBL document CHEMBL1139023, “The reversed binding of beta-phenethylamine inhibitors of DPP-IV: X-ray structures and properties of novel fragment and elaborated inhibitors” (Bioorg Med Chem Lett, 2006).

Tests used:
Dipeptidyl peptidase 4 [1] = target: Dipeptidyl peptidase 4 (Homo sapiens, UniProt P27487); assay: (§1) Inhibition of DPP4 by continuous fluorimetric assay
[2] = target: Dipeptidyl peptidase 4 (Sus scrofa) (UniProt P22411); assay: Inhibition of DPP4 by continuous fluorimetric assay at 100 nM
Sequence of Dipeptidyl peptidase 4 (Sus scrofa) (P22411 whole entry, looked up): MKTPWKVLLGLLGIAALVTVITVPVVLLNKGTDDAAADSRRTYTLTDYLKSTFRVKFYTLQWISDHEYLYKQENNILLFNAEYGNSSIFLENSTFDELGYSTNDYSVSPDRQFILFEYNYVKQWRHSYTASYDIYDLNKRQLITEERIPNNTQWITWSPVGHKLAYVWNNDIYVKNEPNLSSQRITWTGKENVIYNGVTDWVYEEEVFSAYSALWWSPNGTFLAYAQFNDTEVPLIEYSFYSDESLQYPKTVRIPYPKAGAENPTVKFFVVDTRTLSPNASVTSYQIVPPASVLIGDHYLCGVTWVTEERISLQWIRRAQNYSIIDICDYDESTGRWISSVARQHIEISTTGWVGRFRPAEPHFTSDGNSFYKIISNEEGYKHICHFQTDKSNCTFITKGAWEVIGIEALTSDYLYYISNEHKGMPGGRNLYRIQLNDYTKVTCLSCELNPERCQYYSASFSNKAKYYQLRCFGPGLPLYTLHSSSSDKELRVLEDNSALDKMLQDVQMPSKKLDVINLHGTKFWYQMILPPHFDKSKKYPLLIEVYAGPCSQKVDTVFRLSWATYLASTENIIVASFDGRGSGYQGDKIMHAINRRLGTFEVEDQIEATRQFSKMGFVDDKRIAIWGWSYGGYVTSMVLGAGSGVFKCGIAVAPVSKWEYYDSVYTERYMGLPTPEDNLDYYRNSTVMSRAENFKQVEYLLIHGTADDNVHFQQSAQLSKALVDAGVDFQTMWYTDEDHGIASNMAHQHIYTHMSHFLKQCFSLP

Dipeptidyl peptidase 4 [3] = target: Dipeptidyl peptidase 4 (Sus scrofa, UniProt P22411); assay: as §1
Sequence of Dipeptidyl peptidase 4 (Sus scrofa, UniProt P22411) (P22411 whole entry): as the sequence (P22411 whole entry, looked up) above

Sequence of Dipeptidyl peptidase 4 (Homo sapiens, UniProt P27487) (P27487 whole entry): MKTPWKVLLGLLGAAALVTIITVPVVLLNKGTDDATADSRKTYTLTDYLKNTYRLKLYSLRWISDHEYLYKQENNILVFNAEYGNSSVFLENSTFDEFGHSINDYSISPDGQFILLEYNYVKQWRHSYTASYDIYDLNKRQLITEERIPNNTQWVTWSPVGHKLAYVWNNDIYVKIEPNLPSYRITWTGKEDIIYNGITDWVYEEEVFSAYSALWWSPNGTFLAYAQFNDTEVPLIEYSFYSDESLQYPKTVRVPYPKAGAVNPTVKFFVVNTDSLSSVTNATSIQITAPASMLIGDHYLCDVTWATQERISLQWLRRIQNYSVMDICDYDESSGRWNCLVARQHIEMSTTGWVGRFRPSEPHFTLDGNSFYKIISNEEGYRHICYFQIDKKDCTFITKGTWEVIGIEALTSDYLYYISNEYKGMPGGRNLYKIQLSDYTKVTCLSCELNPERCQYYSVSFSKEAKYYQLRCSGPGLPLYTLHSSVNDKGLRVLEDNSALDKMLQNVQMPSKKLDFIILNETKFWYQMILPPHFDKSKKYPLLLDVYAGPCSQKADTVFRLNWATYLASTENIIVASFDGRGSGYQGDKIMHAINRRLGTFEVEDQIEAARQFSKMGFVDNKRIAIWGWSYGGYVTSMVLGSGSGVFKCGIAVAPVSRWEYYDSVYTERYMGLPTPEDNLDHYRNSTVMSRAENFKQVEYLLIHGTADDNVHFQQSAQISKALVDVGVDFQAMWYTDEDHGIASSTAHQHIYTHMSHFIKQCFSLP

Row | IC50 (Dipeptidyl peptidase 4 [1]) [µM] | inhibition [2] [%] | IC50 (Dipeptidyl peptidase 4 [3]) [µM] | Structure (SMILES)
1 | 0.023 | 60 | – | NC(=O)[C@@H]1Cc2ccccc2CN1C(=O)C[C@H](N)Cc1ccccc1F
2 | – | – | 46 | NCC(c1ccccc1Cl)N1CCOCC1 (stereo not given)
3 | – | – | 0.41 | N[C@@H](CC(=O)N1CCC[C@H]1CNC(=O)c1ccccc1)Cc1ccccc1F
4 | – | – | 30 | NCC1(c2ccccc2)CCCC1
